Key:
K. oxy 43086 = test: Selective lysis test, OD600 turbidity (Example 1); type: cell-based, Klebsiella oxytoca
Procedure: (§1) An isolated colony from an overnight Tryptocase Soy Agar (TSA) plate of each bacterial strain was suspended in 1 ml Tryptocasc Soy Broth (TSB) in a 5 ml BD polystyrene round bottom tube. TSB cultures were incubated shaking at 37° C. overnight. Ten of the overnight culture was inoculated into lml TSB and incubated shaking at 37° C. for three hours. Two […] aliquots of each log-phase culture were then transferred to two 2 ml Eppendorf microcentrifuge tubes. One tube contained 5000 of Normal Saline (BD); the second tube contained 5000 Normal Saline with meropenem at 10 μg/ml (final concentration of meropenem of 6.67 10 μg/ml). Tubes were inverted and then incubated at 37° C. stagnant for thirty minutes. Then […] of lysis buffer (0.5% SDS in PSB) (final concentration of SDS of 0.125%) was added to each tube and the tubes were vortexed for 5 seconds. Post incubation, all tubes were spun at 10000 G for 5 minutes. Supernatant was decanted and the pellet resuspended in Normal Saline. Tubes were vortexed again. OD600 was measured using Eppendorf uvettes in a spectrophotometer. The delta between the OD600 of the normal saline control and the OD600 for the test sample exposed to meropenem in normal saline was used to determine susceptibility of the bacterial strain to meropenem.

E. aero 13048 = test: Selective lysis test, OD600 turbidity (Example 1); type: cell-based, Enterobacter aerogenes
Procedure: as §1

K. pneumo 8308 = test: Selective lysis test, OD600 turbidity (Example 1); type: cell-based, Klebsiella pneumoniae
Procedure: as §1

K. pneumo 700603 = test: Selective lysis test, OD600 turbidity (Example 1); type: cell-based, Klebsiella pneumoniae
Procedure: as §1

K. pneumo 9633 = test: Selective lysis test, OD600 turbidity (Example 1); type: cell-based, Klebsiella pneumoniae
Procedure: as §1

K. pneumo 33495 = test: Selective lysis test, OD600 turbidity (Example 1); type: cell-based, Klebsiella pneumoniae
Procedure: as §1

K. pneumo 13882 (NDM−) = test: Selective lysis test, flow cytometry cell count (Example 5); type: cell-based, K. pneumoniae; set-up: key to R or S: R: meropenem resistant strain; S: meropenem sensitive strain
Procedure: (§2) An isolated colony from overnight Tryptocase Soy Agar (TSA) plate for each bacteria was suspended in 1 ml Tryptocase Soy Broth (TSB) in a 5 ml BD polystyrene round bottom tube. TSB cultures were incubated at 37° C. overnight. Ten μl of overnight culture was inoculated into 1 ml TSB and incubated shaking at 37° C. for three hours. Two 250 μl aliquots of each log-phase culture were transferred to two 2 ml Eppendorf microcentrifuge tubes. One tube contained 500 μl of Normal Saline (BD); the second tube contained 504.1 Normal Saline with meropenem at 10 μg/ml. Tubes were inverted then incubated at 37° C. stagnant for thirty minutes. An aliquot was removed at this point for flow cytometry measurement of the total cell count. Then 250 μl lysis buffer (0.5% SDS in PSB) was added to each tube and each tube was vortexed for 5 seconds. Post incubation, all tubes were spun at 10000 G for 5 minutes. Supernatant was decanted and the pellet resuspended in Normal Saline. Tubes were vortexed.
(§3) Re-suspended pellets were then diluted 20 times into a solution of 10 mM Tris-HCl pH=7.6, containing 2.5 μM SYTO 9 (stain permeable to all bacterial cells). Stained bacterial cells were analyzed by flow cytometry using the Guava EasyCyte™ Mini System equipped with a 488 nm diode laser, capillary flow cell, forward and side scatter detectors and fluorescence (green, yellow and red) detectors. Flow cytometry dot plots were acquired with CytoSoft (Guava ExpressPlus) software and cell counts were obtained.

K. pneumo BAA2146 (NDM+) = test: as above; type: cell-based, K. pneumoniae; set-up: key to R or S: R: meropenem resistant strain; S: meropenem sensitive strain
Procedure: as §2, §3

K. oxy strain 43086 = test: Selective lysis test, BacUni QuickFISH staining (Example 3); type: cell-based, K. oxytoca; conditions: FIG. 4; K. oxy 43086; meropenem 10 μg/ml, 30 min, SDS lysis
Source text: An alternative to the spectrophotometer-based measurement of changes in turbidity for measuring cell lysis following treatment with the cell lysis conditions in Examples 1 and 2 is to stain samples using a stain that distinguishes between intact cells and lysed cells. In this example staining with BacUni QuickFISH™ was used to identify intact (i.e., non-lysed) cells. BacUN1 is a universal bacteria PNA probe that binds to an rRNA sequence present in most Gram-positive and Gram-negative bacteria. The PNA probe binds to universal rRNA in intact bacterial cells and the entire cell will appears green with fluorescent microscopy. If the bacterial cell had been lysed then the rRNA target would have been released from the bacterial cell and even of somewhat labeled it would not appear as a fluorescent bacterial cell.
An isolated colony from an overnight Tryptocase Soy Agar (TSA) plate of each bacteria was suspended in 1 ml Tryptocase Soy Broth (TSB) in a 5 ml BD polystyrene round bottom tube. TSB cultures were incubated at 37° C. overnight. Ten μl of overnight culture was inoculated into 1 ml TSB and incubated shaking at 37° C. for three hours. Two 250 μl aliquots of each log-phase culture was transferred to two 2 ml Eppendorf microcentrifuge tubes. […] The slide was viewed on fluorescence microscope using 60× oil immersion on Dual TxR/FITC. […]

[1] = OD600 vs control without meropenem
[2] = meropenem 10 μg/ml, 30 min, SDS lysis buffer + vortex
[3] = K. pneumo 13882 (NDM−), 10 μg/ml Meropenem, Post-lysis + spin
[4] = K. pneumo BAA2146 (NDM+), 10 μg/ml Meropenem, Post-lysis + spin

## C[C@@H](O)[C@H]1C(=O)N2C(C(=O)O)=C(S[C@@H]3CN[C@H](C(=O)N(C)C)C3)[C@H](C)[C@H]12 [meropenem]
K. oxy 43086
  R or S: S (a percentage change of greater than about 85% indicates a strain is susceptible)
K. oxy 43086; [1]
  % Change: 99%
K. oxy 43086; [2]
  Mero OD600: 0.02
E. aero 13048
  R or S: S (a percentage change of greater than about 85% indicates a strain is susceptible)
E. aero 13048; [1]
  % Change: 97%
E. aero 13048; [2]
  Mero OD600: 0.077
K. pneumo 8308
  R or S: S (a percentage change of greater than about 85% indicates a strain is susceptible)
K. pneumo 8308; [1]
  % Change: 98%
K. pneumo 8308; [2]
  Mero OD600: 0.053
K. pneumo 700603
  R or S: S (a percentage change of greater than about 85% indicates a strain is susceptible)
K. pneumo 700603; [1]
  % Change: 94%
K. pneumo 700603; [2]
  Mero OD600: 0.065
K. pneumo 9633
  R or S: S (a percentage change of greater than about 85% indicates a strain is susceptible)
K. pneumo 9633; [1]
  % Change: 99%
K. pneumo 9633; [2]
  Mero OD600: 0.015
K. pneumo 33495
  R or S: S (a percentage change of greater than about 85% indicates a strain is susceptible)
K. pneumo 33495; [1]
  % Change: 95%
K. pneumo 33495; [2]
  Mero OD600: 0.097
K. pneumo 13882 (NDM−); [3]
  Cell Number/ml: 241000 mL⁻¹
  R or S: S
K. pneumo 13882 (NDM−); K. pneumo 13882 (NDM−), 10 μg/ml Meropenem, Pre-lysis
  Cell Number/ml: 2.38e+06 mL⁻¹
K. pneumo 13882 (NDM−); K. pneumoniae 13882 (NDM−), meropenem treated sample, post-lysis vs pre-lysis
  reduction in cell number after lysis and centrifugation: 90%
K. pneumo BAA2146 (NDM+); [4]
  Cell Number/ml: 2.83e+06 mL⁻¹
  R or S: R
K. pneumo BAA2146 (NDM+); K. pneumo BAA2146 (NDM+), 10 μg/ml Meropenem, Pre-lysis
  Cell Number/ml: 3.04e+06 mL⁻¹
K. pneumo BAA2146 (NDM+); K. pneumoniae BAA2146 (NDM+), meropenem treated sample, post-lysis vs pre-lysis
  reduction in cell number after lysis and centrifugation: 7%
K. oxy strain 43086
  number of BacUni QuickFISH stained cells, treated vs not treated: significant reduction in the number of stained cells

Reference: patent US20160281125A1, “ANTIMICROBIAL COMPOUND SUSCEPTIBILITY TEST” (priority 2013, published 2016)
